Experimental data: patent publication US9597327B2, “Synthesis of (R)-N-methylnaltrexone” (Progenics Pharmaceuticals, Inc., priority 2005, dated 2017)
Where a name gives a salt, the structure may show the parent alone.

Assays:
[1] = opioid agonist / antagonist character of the MNTX stereoisomers (stated, no method given); conditions: statement in words, no assay described
chronic opioid user = conditions: intravenously; subjects receiving opioids chronically; cited from earlier work

Row | Compound | opioid activity (agonist or antagonist) [1] | dose required to induce immediate laxation (chronic opioid user)
1 | C[N+]1(CC2CC2)CC[C@]23c4c5ccc(O)c4O[C@H]2C(=O)CC[C@@]3(O)[C@H]1C5 (stereo partly drawn) [R-MNTX, morphinanium, 17R, 17-(cyclopropylmethyl)-4,5-epoxy-3,14-dihydroxy-17-methyl-6-oxo-, salt, (5α)-(9Cl)] | opioid antagonist | –
2 | C[N@@+]1(CC2CC2)CC[C@]23c4c5ccc(O)c4OC2C(=O)CCC3(O)C1C5 (stereo partly drawn) [S-MNTX] | opioid agonist | –
3 | C[N+]1(CC2CC2)CC[C@]23c4c5ccc(O)c4O[C@H]2C(=O)CC[C@@]3(O)[C@H]1C5 (stereo partly drawn) [MNTX, Methylnaltrexone] | – | about 0.15 mg/kg
